In patent publication US20090093469A1, “Phenylaminopropanol Derivatives and Methods of Their Use” (WYETH, priority 2004, published 2009) one finds inhibition data, which are given here for 26 compounds.

Where a name gives a salt, the structure may show the parent alone. Read-outs that look alike come from different tables or passages of the source.

The assay has as its target T1, hNET (Homo sapiens, UniProt P23975).
T1 construct: expressed in transfected cells
Nature of the assay: Norepinephrine (NE) uptake assay in MDCK-Net6 cells stably transfected with human hNET. It counts as cell-based. How it is done: Cells were plated at 300,000/T75 flask and cells were split twice weekly. […] Cells were plated at 250,000 cells/T75 flask and split twice weekly.
On day 1, cells were plated at 3,000 cells/well in growth medium and maintained in a cell incubator (37° C., 5% CO2). On day 2, growth medium was replaced with 200 μl of assay buffer (25 mM HEPES; 120 mM NaCl; 5 mM KCl; 2.5 mM CaCl2; 1.2 mM MgSO4; 2 mg/ml glucose (pH 7.4, 37° C.)) containing 0.2 mg/ml ascorbic acid and 10 μM pargyline. Plates containing cells with 200 μl of assay buffer were equilibrated for 10 minutes at 37° C. prior to addition of compounds. A stock solution of desipramine was prepared in DMSO (10 mM) and delivered to triplicate wells containing cells for a final test concentration of 1 μM. Data from these wells were used to define non-specific NE uptake (minimum NE uptake). Test compounds were prepared in DMSO (10 mM) and diluted in assay buffer according to test range (1 to 10,000 nM). Twenty-five microliters of assay buffer (maximum NE uptake) or test compound were added directly to triplicate wells containing cells in 200 μl of assay buffer. The cells in assay buffer with test compounds were incubated for 20 minutes at 37° C. To initiate the NE uptake, [^3H]NE diluted in assay buffer (120 nM final assay concentration) was delivered in 25 μl aliquots to each well and the plates were incubated for 5 minutes (37° C.). The reaction was terminated by decanting the supernatant from the plate. The plates containing cells were washed twice with 200 μl assay buffer (37° C.) to remove free radioligand. The plates were then inverted, left to dry for 2 minutes, then reinverted and air-dried for an additional 10 minutes. The cells were lysed in 25 μl of 0.25 N NaOH solution (4° C.), placed on a shake table and vigorously shaken for 5 minutes. After cell lysis, 75 μl of scintillation cocktail was added to each well and the plates were sealed with film tape. The plates were returned to the shake table and vigorously shaken for a minimum of 10 minutes to ensure adequate partitioning of organic and aqueous solutions. The plates were counted in a Wallac Microbeta counter (PerkinElmer) to collect the raw cpm data.
For each experiment, a data stream of cpm values collected from the Wallac Microbeta counter was downloaded to a Microsoft Excel statistical application program. Calculations of EC50 values were made using the transformed-both-sides logistic dose response program written by Wyeth Biometrics Department.

Where [1] appears, read: test compound 1 μM, [3H]NE uptake, MDCK-Net6 cells, read-out: % Inhibition @ 1 μM (hNET).
The mark [2] stands for this setting: MDCK-Net6, read-out: % Inhibition @ 1 μM (hNET).

T1 sequence (P23975 whole entry): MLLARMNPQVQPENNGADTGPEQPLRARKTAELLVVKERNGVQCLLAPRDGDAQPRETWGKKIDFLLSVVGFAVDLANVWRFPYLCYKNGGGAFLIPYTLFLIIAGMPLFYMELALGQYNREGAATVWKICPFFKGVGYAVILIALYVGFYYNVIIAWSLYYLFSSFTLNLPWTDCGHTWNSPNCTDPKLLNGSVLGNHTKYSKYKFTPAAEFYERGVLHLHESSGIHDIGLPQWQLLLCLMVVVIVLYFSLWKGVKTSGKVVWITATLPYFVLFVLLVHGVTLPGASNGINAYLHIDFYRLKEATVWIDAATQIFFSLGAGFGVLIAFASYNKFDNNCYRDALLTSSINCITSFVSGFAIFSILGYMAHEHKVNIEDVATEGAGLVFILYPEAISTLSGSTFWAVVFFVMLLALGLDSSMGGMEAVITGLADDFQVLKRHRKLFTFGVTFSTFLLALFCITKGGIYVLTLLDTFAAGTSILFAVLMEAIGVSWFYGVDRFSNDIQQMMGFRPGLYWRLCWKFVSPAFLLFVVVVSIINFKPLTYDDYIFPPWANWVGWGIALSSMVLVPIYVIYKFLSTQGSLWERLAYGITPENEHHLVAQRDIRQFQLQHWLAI

On to `CNC[C@@H](O)[C@@H](c1cccs1)n1ccc2ccccc21` [Example 102, (1S,2R)-1-(1H-indol-1-yl)-3-(methylamino)-1-(2-thienyl)propan-2-ol hydrochloride], for which, under setting [1], the inhibition (in general, the share of the control response that was lost under treatment) at 1 µM was 95.3%.

For the compound `CNC[C@@H](O)[C@H](c1cccc(OC(F)(F)F)c1)n1ccc2ccccc21` [Example 35, (1S,2R)-1-(1H-indol-1-yl)-3-(methylamino)-1-[3-(trifluoromethoxy)phenyl]propan-2-ol hydrochloride], the inhibition at 1 µM under setting [1] came to 94.3%.

Regarding `CNC[C@@H](O)[C@H](c1cccc(F)c1)n1ccc2c(F)cccc21` [Example 184, (1S,2R)-1-(4-fluoro-1H-indol-1-yl)-1-(3-fluorophenyl)-3-(methylamino)propan-2-ol hydrochloride], under setting [2], the inhibition at 1 µM came to 99.7%.

`O[C@@H](CNCc1ccccc1)[C@@H](c1ccccc1)n1ccc2ccccc21` (racemic) [Example 7, (1RS,2SR)-3-(benzylamino)-1-(1H-indol-1-yl)-1-phenylpropan-2-ol hydrochloride]: under setting [1], the inhibition at 1 µM is 25.6%.

`CNC[C@H](O)[C@@H](c1ccccc1)n1ccc2ccccc21` (racemic) [Example 11, (1RS,2SR)-1-(1H-indol-1-yl)-3-(methylamino)-1-phenylpropan-2-ol hydrochloride]: the inhibition at 1 µM under setting [2] was 94.5%.

With `CNC[C@@H](O)[C@H](c1cccc(F)c1)n1cc(-c2ccccc2C(F)(F)F)c2ccccc21` [Example 175, (1S,2R)-1-(3-fluorophenyl)-3-(methylamino)-1-{3-[2-(trifluoromethyl)phenyl]-1H-indol-1-yl}propan-2-ol hydrochloride], the inhibition at 1 µM under setting [1] was determined as 99.6%.

`CNC[C@H](O)[C@@H](c1ccccc1C)n1ccc2ccccc21` (single isomer, unassigned) [Example 54, hydrochloride]: under setting [2], the inhibition at 1 µM was 68.6%.

As to `CNC[C@@H](O)[C@H](c1cccc(F)c1)n1ccc2c(Br)cccc21` [Example 125, (1S,2R)-1-(4-bromo-1H-indol-1-yl)-1-(3-fluorophenyl)-3-(methylamino)propan-2-ol hydrochloride], under setting [2], the inhibition at 1 µM amounted to 94.3%.

`O[C@@H](CN1CCNCC1)[C@@H](c1ccccc1)n1ccc2ccccc21` (racemic) [Example 13, (1RS,2SR)-1-(1H-indol-1-yl)-1-phenyl-3-piperazin-1-ylpropan-2-ol dihydrochloride]: under setting [1], the inhibition at 1 µM was 34.3%.

Regarding `CNC[C@@H](O)[C@H](c1ccccc1)n1ccc2c(Br)cccc21` [Example 124, (1S,2R)-1-(4-bromo-1H-indol-1-yl)-3-(methylamino)-1-phenylpropan-2-ol hydrochloride], the inhibition at 1 µM under setting [1] was determined as 91.5%.

As for `CNC[C@@H](O)[C@H](c1ccccc1)n1ccc2ccc(F)cc21` [Example 186, (1S,2R)-1-(6-fluoro-1H-indol-1-yl)-3-(methylamino)-1-phenylpropan-2-ol hydrochloride], the inhibition at 1 µM under setting [1] was determined as 96.6%.

For `CNC[C@@H](O)[C@H](c1cccc(F)c1)n1cc(C)c2ccccc21` [Example 143, (1S,2R)-1-(3-fluorophenyl)-3-(methylamino)-1-(3-methyl-1H-indol-1-yl)propan-2-ol hydrochloride], the inhibition at 1 µM under setting [2] is 96.8%.

Take `CNC[C@@H](O)[C@H](c1cccc(F)c1)n1cc(-c2cccc(F)c2F)c2ccccc21` [Example 211, (1S,2R)-1-[3-(2,3-difluorophenyl)-1H-indol-1-yl]-1-(3-fluorophenyl)-3-(methylamino)propan-2-ol hydrochloride]: under setting [1], the inhibition at 1 µM is 99.8%.

Regarding `CNC[C@@H](O)[C@H](c1cccc(F)c1)n1cc(-c2ccc(C(C)(C)C)cc2)c2ccccc21` [Example 171, (1S,2R)-1-[3-(4-tert-butylphenyl)-1H-indol-1-yl]-1-(3-fluorophenyl)-3-(methylamino)propan-2-ol hydrochloride], the inhibition at 1 µM under setting [1] amounted to 98.3%.

`CNC[C@@H](O)[C@H](c1cccc(F)c1)n1cc(-c2cccc(OC)c2)c2ccccc21` [Example 172, (1S,2R)-1-(3-fluorophenyl)-1-[3-(3-methoxyphenyl)-1H-indol-1-yl]-3-(methylamino)propan-2-ol hydrochloride]: the inhibition at 1 µM under setting [1] amounted to 88%.

On to `Cc1cn([C@@H](c2ccccc2)[C@H](O)CN)c2ccc(Cl)cc12` [Example 120, (1S,2R)-3-amino-1-(5-chloro-3-methyl-1H-indol-1-yl)-1-phenylpropan-2-ol hydrochloride], for which, under setting [1], the inhibition at 1 µM turned out to be 68.6%.

For the compound `CNC[C@@H](O)[C@H](c1ccccc1)n1ccc2cc(C)ccc21` [Example 95, (1S,2R)-3-(methylamino)-1-(5-methyl-1H-indol-1-yl)-1-phenylpropan-2-ol hydrochloride], the inhibition at 1 µM under setting [1] is 97.6%.

Take `CNC[C@@H](O)[C@H](c1ccccc1)n1cc(C)c2cccc(Cl)c21` [Example 122, (1S,2R)-1-(7-chloro-3-methyl-1H-indol-1-yl)-3-(methylamino)-1-phenylpropan-2-ol hydrochloride]: under setting [1], the inhibition at 1 µM came to 97.4%.

Turning to `CNC[C@@H](O)[C@H](c1cccc(F)c1)n1cc(-c2ccccc2F)c2ccccc21` [Example 114, (1S,2R)-1-(3-fluorophenyl)-1-[3-(2-fluorophenyl)-1H-indol-1-yl]-3-(methylamino)propan-2-ol hydrochloride], the inhibition at 1 µM under setting [1] was 100%.

With `CNC[C@@H](O)[C@H](c1cccc(F)c1)n1cc(-c2cccc(C)c2)c2ccccc21` [Example 48, (1S,2R)-1-(3-fluorophenyl)-3-(methylamino)-1-[3-(3-methylphenyl)-1H-indol-1-yl]propan-2-ol hydrochloride], the inhibition at 1 µM under setting [1] was 96.6%.

In the case of `CNC[C@@H](O)[C@H](c1cccc(F)c1)n1ccc2cc(C(F)(F)F)ccc21` [Example 185, (1S,2R)-1-(3-fluorophenyl)-3-(methylamino)-1-[5-(trifluoromethyl)-1H-indol-1-yl]propan-2-ol hydrochloride], the inhibition at 1 µM under setting [1] is 80.8%.

In the case of `CNC[C@@H](O)[C@H](c1ccccc1)n1ccc2cc(C(F)(F)F)ccc21` [Example 188, (1S,2R)-3-(methylamino)-1-phenyl-1-[5-(trifluoromethyl)-1H-indol-1-yl]propan-2-ol hydrochloride], under setting [1], the inhibition at 1 µM was determined as 71.6%.

On to `CNC[C@@H](O)[C@H](c1ccccc1OC(F)(F)F)n1ccc2ccccc21` [Example 36, (1S,2R)-1-(1H-indol-1-yl)-3-(methylamino)-1-[2-(trifluoromethoxy)phenyl]propan-2-ol hydrochloride], for which, under setting [1], the inhibition at 1 µM is 82.3%.

On to `CNC[C@H](O)[C@@H](c1ccccc1OC(F)(F)F)n1ccc2ccccc21` [Example 37, (1R,2S)-1-(1H-indol-1-yl)-3-(methylamino)-1-[2-(trifluoromethoxy)phenyl]propan-2-ol hydrochloride], for which the inhibition at 1 µM under setting [1] was found to be 21.4%.

With `NC[C@H](O)[C@@H](c1ccccc1)n1ccc2ccccc21` (racemic) [Example 17, (1RS,2SR)-3-amino-1-(1H-indol-1-yl)-1-phenylpropan-2-ol hydrochloride], the inhibition at 1 µM under setting [1] was determined as 71%.

Consider `CNC[C@H](O)[C@H](c1cccc(F)c1)n1ccc2ccccc21` [Example 139, (1S,2S)-1-(3-fluorophenyl)-1-(1H-indol-1-yl)-3-(methylamino)propan-2-ol hydrochloride], for which the inhibition at 1 µM under setting [2] turned out to be 94.9%.
